Measurements from patent US12435059B2, “AMP-activated protein kinase inhibitors and methods of making and using the same” (The Regents of the University of Colorado, priority 2019, dated 2025).

What was measured:
Assay in all cases: biochemical
Assay type in all cases: binding
468 kinases [1] = target: 468 kinases (Homo sapiens, UniProt P49336); conditions: CDK8; read-out: % Inhibition @ 100 nM
468 kinases [2] = target: 468 kinases (Homo sapiens, UniProt Q14004); conditions: read-out: % Inhibition @ 100 nM, CDC2L5
468 kinases [3] = target: 468 kinases (Homo sapiens, UniProt P42685); conditions: FRK; read-out: % Inhibition @ 100 nM
468 kinases [4] = target: 468 kinases (Homo sapiens, UniProt P48729); conditions: CSNK1A1; read-out: % Inhibition @ 100 nM
468 kinases (Homo sapiens, UniProt P48729), sequence (P48729 2-337 limits assumed): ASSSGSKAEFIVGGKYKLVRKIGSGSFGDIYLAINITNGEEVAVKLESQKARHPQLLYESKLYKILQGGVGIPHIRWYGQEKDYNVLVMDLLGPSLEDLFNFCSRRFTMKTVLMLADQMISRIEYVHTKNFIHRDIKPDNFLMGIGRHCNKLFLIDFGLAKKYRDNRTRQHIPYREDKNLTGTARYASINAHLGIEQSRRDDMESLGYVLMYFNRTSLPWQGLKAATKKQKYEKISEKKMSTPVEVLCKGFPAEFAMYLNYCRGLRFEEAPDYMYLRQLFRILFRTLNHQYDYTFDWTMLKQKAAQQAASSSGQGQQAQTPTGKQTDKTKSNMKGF

468 kinases [5] = target: 468 kinases (Homo sapiens, UniProt P10721, V559D/V654A); conditions: KIT(V559D,V654A); read-out: % Inhibition @ 100 nM
468 kinases (Homo sapiens, UniProt P10721, V559D/V654A), sequence (P10721 26-976 V559D/V654A limits assumed): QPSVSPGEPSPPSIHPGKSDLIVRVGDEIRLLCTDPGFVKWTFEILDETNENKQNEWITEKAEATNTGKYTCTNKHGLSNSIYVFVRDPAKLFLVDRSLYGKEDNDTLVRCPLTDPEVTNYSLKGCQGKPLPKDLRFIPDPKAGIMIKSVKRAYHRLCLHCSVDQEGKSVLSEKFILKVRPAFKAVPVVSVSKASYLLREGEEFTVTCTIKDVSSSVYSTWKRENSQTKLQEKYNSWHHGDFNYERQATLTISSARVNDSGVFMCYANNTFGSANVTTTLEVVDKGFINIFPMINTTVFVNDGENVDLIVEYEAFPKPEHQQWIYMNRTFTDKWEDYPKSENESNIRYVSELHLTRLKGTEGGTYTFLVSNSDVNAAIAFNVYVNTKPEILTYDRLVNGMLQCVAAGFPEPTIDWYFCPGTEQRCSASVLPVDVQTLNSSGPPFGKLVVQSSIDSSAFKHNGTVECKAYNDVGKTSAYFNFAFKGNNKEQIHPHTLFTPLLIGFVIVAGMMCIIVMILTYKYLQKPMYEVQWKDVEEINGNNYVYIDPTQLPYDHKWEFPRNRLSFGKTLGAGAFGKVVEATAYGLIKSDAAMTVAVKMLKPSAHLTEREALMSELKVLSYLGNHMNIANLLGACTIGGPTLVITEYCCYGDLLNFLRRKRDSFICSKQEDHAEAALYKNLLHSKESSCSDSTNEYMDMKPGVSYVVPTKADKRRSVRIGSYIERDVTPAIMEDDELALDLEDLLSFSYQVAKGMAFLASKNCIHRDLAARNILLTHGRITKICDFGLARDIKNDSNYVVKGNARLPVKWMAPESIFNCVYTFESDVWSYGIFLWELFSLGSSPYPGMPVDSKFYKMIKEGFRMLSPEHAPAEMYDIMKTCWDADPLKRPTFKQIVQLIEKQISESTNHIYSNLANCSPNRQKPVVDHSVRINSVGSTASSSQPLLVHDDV

468 kinases [6] = target: 468 kinases (Homo sapiens, UniProt P53355); conditions: DAPK1; read-out: % Inhibition @ 100 nM
468 kinases [7] = target: 468 kinases (Homo sapiens, UniProt O14733); conditions: MKK7; read-out: % Inhibition @ 100 nM
468 kinases (Homo sapiens, UniProt O14733), sequence (O14733 2-419 limits assumed): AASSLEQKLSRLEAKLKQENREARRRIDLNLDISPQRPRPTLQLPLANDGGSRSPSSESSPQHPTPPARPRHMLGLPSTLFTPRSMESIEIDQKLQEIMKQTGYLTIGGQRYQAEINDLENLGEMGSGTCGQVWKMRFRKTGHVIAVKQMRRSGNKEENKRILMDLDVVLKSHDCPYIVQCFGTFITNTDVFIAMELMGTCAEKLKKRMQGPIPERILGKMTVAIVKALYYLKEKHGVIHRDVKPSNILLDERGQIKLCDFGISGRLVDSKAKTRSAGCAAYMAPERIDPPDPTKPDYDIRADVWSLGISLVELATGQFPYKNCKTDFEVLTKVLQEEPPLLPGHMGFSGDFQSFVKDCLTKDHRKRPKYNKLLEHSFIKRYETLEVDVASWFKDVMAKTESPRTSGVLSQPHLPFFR

468 kinases [8] = target: 468 kinases (Homo sapiens, UniProt Q9H3Y6); conditions: SRMS; read-out: % Inhibition @ 100 nM
468 kinases [9] = target: 468 kinases (Homo sapiens, UniProt Q96PN8); conditions: TSSK3; read-out: % Inhibition @ 100 nM
468 kinases [10] = target: 468 kinases (Homo sapiens, UniProt P20794); conditions: MAK; read-out: % Inhibition @ 100 nM
468 kinases [11] = target: 468 kinases (Homo sapiens, UniProt P23443); conditions: S6K1; read-out: % Inhibition @ 100 nM
468 kinases [12] = target: 468 kinases (Homo sapiens, UniProt P42336, E542K); conditions: PIK3CA(E542K); read-out: % Inhibition @ 100 nM
468 kinases [13] = target: 468 kinases (Homo sapiens, UniProt Q00536); conditions: PCTK1; read-out: % Inhibition @ 100 nM
468 kinases [14] = target: 468 kinases (Homo sapiens, UniProt O96017); conditions: CHEK2; read-out: % Inhibition @ 100 nM
468 kinases [15] = target: 468 kinases (Homo sapiens, UniProt Q15759); conditions: p38-beta; read-out: % Inhibition @ 100 nM
468 kinases [16] = target: 468 kinases (Homo sapiens, UniProt P10721, V559D); conditions: KIT(V559D); read-out: % Inhibition @ 100 nM
468 kinases (Homo sapiens, UniProt P10721, V559D), sequence (P10721 26-976 V559D limits assumed): as the sequence (P10721 26-976 V559D/V654A limits assumed) above, with A629V counted along it

468 kinases [17] = target: 468 kinases (Homo sapiens, UniProt Q9BVS4); conditions: RIOK2; read-out: % Inhibition @ 100 nM
468 kinases [18] = target: 468 kinases (Plasmodium falciparum, UniProt P61075); conditions: PFPK5 (P.falciparum); read-out: % Inhibition @ 100 nM
468 kinases [19] = target: 468 kinases (Homo sapiens, UniProt Q13546); conditions: RIPK1; read-out: % Inhibition @ 100 nM
468 kinases [20] = target: 468 kinases (Homo sapiens, UniProt Q13976); conditions: PRKG1; read-out: % Inhibition @ 100 nM
468 kinases (Homo sapiens, UniProt Q13976), sequence (Q13976 2-671 limits assumed): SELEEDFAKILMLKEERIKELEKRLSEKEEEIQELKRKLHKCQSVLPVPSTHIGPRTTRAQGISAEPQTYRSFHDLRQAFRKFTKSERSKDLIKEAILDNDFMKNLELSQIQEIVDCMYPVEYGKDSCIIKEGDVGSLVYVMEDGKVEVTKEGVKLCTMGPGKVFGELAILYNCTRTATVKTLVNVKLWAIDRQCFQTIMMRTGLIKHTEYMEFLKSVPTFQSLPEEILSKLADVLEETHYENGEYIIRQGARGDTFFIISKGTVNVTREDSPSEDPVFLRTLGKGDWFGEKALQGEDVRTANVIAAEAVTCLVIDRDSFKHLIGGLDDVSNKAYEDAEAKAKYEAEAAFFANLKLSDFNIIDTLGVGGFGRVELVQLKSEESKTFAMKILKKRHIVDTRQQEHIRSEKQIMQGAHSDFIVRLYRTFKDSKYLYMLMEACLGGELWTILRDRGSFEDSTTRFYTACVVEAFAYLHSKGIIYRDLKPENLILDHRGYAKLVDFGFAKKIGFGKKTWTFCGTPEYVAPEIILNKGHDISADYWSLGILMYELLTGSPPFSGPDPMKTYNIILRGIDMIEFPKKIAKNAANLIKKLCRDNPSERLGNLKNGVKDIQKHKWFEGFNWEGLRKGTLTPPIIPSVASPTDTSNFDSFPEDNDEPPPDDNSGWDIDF

468 kinases [21] = target: 468 kinases (Homo sapiens, UniProt O43318); conditions: TAK1; read-out: % Inhibition @ 100 nM
468 kinases [22] = target: 468 kinases (Homo sapiens, UniProt P42680); conditions: TEC; read-out: % Inhibition @ 100 nM
468 kinases [23] = target: 468 kinases (Homo sapiens, UniProt Q8N568); conditions: DCAMKL2; read-out: % Inhibition @ 100 nM
468 kinases [24] = target: 468 kinases (Homo sapiens, UniProt Q9NY57); conditions: YANK2; read-out: % Inhibition @ 100 nM
468 kinases [25] = target: 468 kinases (Homo sapiens, UniProt Q8TDC3); conditions: BRSK1; read-out: % Inhibition @ 100 nM
468 kinases [26] = target: 468 kinases (Homo sapiens, UniProt Q09013); conditions: DMPK; read-out: % Inhibition @ 100 nM
468 kinases [27] = target: 468 kinases (Homo sapiens, UniProt O15111); conditions: IKK-alpha; read-out: % Inhibition @ 100 nM
468 kinases [28] = target: 468 kinases (Homo sapiens, UniProt P42338); conditions: PIK3CB; read-out: % Inhibition @ 100 nM
468 kinases [29] = target: 468 kinases (Homo sapiens, UniProt P57058); conditions: HUNK; read-out: % Inhibition @ 100 nM
468 kinases [30] = target: 468 kinases (Homo sapiens, UniProt P42336); conditions: PIK3CA; read-out: % Inhibition @ 100 nM
468 kinases [31] = target: 468 kinases (Homo sapiens, UniProt Q9Y616); conditions: IRAK3; read-out: % Inhibition @ 100 nM
468 kinases [32] = target: 468 kinases (Homo sapiens, UniProt P53778); conditions: p38-gamma; read-out: % Inhibition @ 100 nM
468 kinases [33] = target: 468 kinases (Homo sapiens, UniProt Q9BZL6); conditions: PRKD2; read-out: % Inhibition @ 100 nM

Compound	inhibition at 0.1 µM (468 kinases [1]) [%]	inhibition at 0.1 µM (468 kinases [2]) [%]	inhibition at 0.1 µM (468 kinases [3]) [%]	inhibition at 0.1 µM (468 kinases [4]) [%]	inhibition at 0.1 µM (468 kinases [5]) [%]	inhibition at 0.1 µM (468 kinases [6]) [%]	inhibition at 0.1 µM (468 kinases [7]) [%]	inhibition at 0.1 µM (468 kinases [8]) [%]	inhibition at 0.1 µM (468 kinases [9]) [%]	inhibition at 0.1 µM (468 kinases [10]) [%]	inhibition at 0.1 µM (468 kinases [11]) [%]	inhibition at 0.1 µM (468 kinases [12]) [%]	inhibition at 0.1 µM (468 kinases [13]) [%]	inhibition at 0.1 µM (468 kinases [14]) [%]	inhibition at 0.1 µM (468 kinases [15]) [%]	inhibition at 0.1 µM (468 kinases [16]) [%]	inhibition at 0.1 µM (468 kinases [17]) [%]	inhibition at 0.1 µM (468 kinases [18]) [%]	inhibition at 0.1 µM (468 kinases [19]) [%]	inhibition at 0.1 µM (468 kinases [20]) [%]	further results
CCN(CC)CCNC(=O)c1c(C)[nH]c(/C=C2\C(=O)Nc3ccc(CCO)cc32)c1C [Compound No. 10, (Z)—N-(2-(Diethylamino)ethyl)-5-((5-(2-hydroxyethyl)-2-oxoindolin-3-ylidene)methyl)-2,4-dimethyl-1H-pyrrole-3-carboxamide]	23	27	0	14	79	4	0	13	4	0	37	10	0	83	80	88	0	0	1	0	inhibition at 0.1 µM (468 kinases [21]): 59%; inhibition at 0.1 µM (468 kinases [22]): 0%; inhibition at 0.1 µM (468 kinases [23]): 0%; inhibition at 0.1 µM (468 kinases [24]): 1%; inhibition at 0.1 µM (468 kinases [25]): 29%; inhibition at 0.1 µM (468 kinases [26]): 0%; inhibition at 0.1 µM (468 kinases [27]): 0%; inhibition at 0.1 µM (468 kinases [28]): 0%; inhibition at 0.1 µM (468 kinases [29]): 13%; inhibition at 0.1 µM (468 kinases [30]): 0%; inhibition at 0.1 µM (468 kinases [31]): 0%; inhibition at 0.1 µM (468 kinases [32]): 14%; inhibition at 0.1 µM (468 kinases [33]): 0%
CCN(CC)CCNC(=O)c1c(C)[nH]c(/C=C2\C(=O)Nc3ccc(CCC(N)=O)cc32)c1C [Compound No. 16, (Z)-5-((5-(3-Amino-3-oxopropyl)-2-oxoindolin-3-ylidene)methyl)-N-(2-(diethylamino)ethyl)-2,4-dimethyl-1H-pyrrole-3-carboxamide]	15	50	38	27	0	20	17	27	5	4	33	26	19	93.2	0	0	38	40	19	14	inhibition at 0.1 µM (468 kinases [21]): 61%; inhibition at 0.1 µM (468 kinases [22]): 0%; inhibition at 0.1 µM (468 kinases [23]): 3%; inhibition at 0.1 µM (468 kinases [24]): 0%; inhibition at 0.1 µM (468 kinases [25]): 27%; inhibition at 0.1 µM (468 kinases [26]): 11%; inhibition at 0.1 µM (468 kinases [27]): 20%; inhibition at 0.1 µM (468 kinases [28]): 3%; inhibition at 0.1 µM (468 kinases [29]): 0%; inhibition at 0.1 µM (468 kinases [30]): 14%; inhibition at 0.1 µM (468 kinases [31]): 100%; inhibition at 0.1 µM (468 kinases [32]): 15%; inhibition at 0.1 µM (468 kinases [33]): 16%
